Reference: patent US12509439B2, “Anti-malarial agents” (UNIVERSITY OF KENTUCKY RESEARCH FOUNDATION, priority 2020, dated 2025)

Legend:
[1] = test system: Plasmodium falciparum (3D7); assay: In-vitro potency against P. falciparum (3D7 strain), SYBR Green growth inhibition; type: cell-based; details: P. falciparum 3D7, asexual intraerythrocytic stage, SYBR Green fluorescence
Description: Cultures of the widely-used malaria reference strain of chloroquine-sensitive Plasmodium falciparum (3D7) were maintained in a 1.25% suspension of human red blood cells cultured in RPMI 1640 medium (pH 7.3) supplemented with 0.5% Albumax II (Gibco Life Technologies, San Diego, CA), 12 mM sodium bicarbonate, 0.2 mM hypoxanthine, and 20 mg/L gentamicin at 37° C., in an atmosphere of 1% O2, 3% CO2 with a balance of nitrogen (Human malaria parasites in continuous culture. Trager W et al., 1976, Science, 193: 673-675). Growth inhibition was quantified using a fluorescence assay utilising the binding of SYBR Green (Novel, rapid, and inexpensive cell-based quantification of antimalarial drug efficacy. Bennett T. N. et al., 2004, Antimicrob. Agents Chemother., 48: 1807-1810) to double stranded DNA, which emits a fluorescent signal at 528 nm after excitation at 485 nm. Mefloquine was used as a drug control to monitor the quality of the assay (Z′=0.6 to 0.8, where Z′ is a measure of the discrimination between the positive and negative controls on a screen plate). Hits were confirmed by full-potency curves with dose-response curves determined from a minimum of 3 independent experiments. Compound bioactivity was expressed as EC50, the effective concentration of compound causing 50% parasite death. All data were processed using IDBS ActivityBase. Raw data was converted into percent inhibition through linear regression by setting the high inhibition control as 100% and the no inhibition control as 0%. Quality control criteria for passing plates were as follows: z′>0.5, S:B>3, % CV(no inhibition control)<15. The formula used to calculate z′ is
Curve fitting was carried out using the following 4 parametric equation:
where A=% inhibition at bottom, B=% inhibition at top, C=EC50, D=slope, x=inhibitor concentration and y=% inhibition. If curve definition was poor, B was fixed to 100.

[2] = Microsomal intrinsic clearance, rat liver microsomes; type: in vitro ADME; details: rat liver microsomes (pooled), pH 7.4, 45 min, NADPH
Description: The compounds of the invention (1 μM) were incubated in suspension with human (rat or mouse) liver microsomes pooled from multiple donors (>10) and samples taken at 5 time points over the course of a 45 min experiment and analysed by LC MS/MS. Microsomes (final protein concentration 0.5 mg/mL), 0.1 M phosphate buffer pH 7.4 and test compound (final substrate concentration 1 μM; final DMSO concentration 0.25%) were pre-incubated at 37° C. prior to the addition of NADPH (final concentration 1 mM) to initiate the reaction. A minus cofactor control incubation was included for each compound tested where 0.1 M phosphate buffer pH 7.4 is added instead of NADPH (minus NADPH). All incubations were performed in duplicate for each test compound and the results averaged. Each compound is incubated for 0, 5, 15, 30 and 45 min. The control (minus NADPH) was incubated for 45 min only. The reactions were stopped by transferring incubate into acetonitrile at the appropriate time points, in a 1:3 ratio.
The termination plates were centrifuged at 3,000 rpm for 20 min at 4° C. to precipitate the protein. Following protein precipitation, the sample supernatants were combined in cassettes of up to 4 compounds, internal standard added and samples analysed by LC-MS/MS. From a plot of ln peak area ratio (compound peak area/internal standard peak area) against time, the gradient of the line is determined. Subsequently, half-life (t½) and intrinsic clearance (CLint) are calculated using the equations below: Elimination rate constant (k)=(−gradient) Half-life (t1/2)(min)=0.693/k Intrinsic clearance (i.e. CLint)(μL/min/mg protein)=V×0.693/t1/2 where V=Incubation volume (μL)/Microsomal protein (mg)
Verapamil and dextromethorphan were included in the assay as controls and if the values for these compounds were not within the specified limits the results were rejected and the experiment repeated.

[3] = Hepatocyte intrinsic clearance, cryopreserved human hepatocytes; type: in vitro ADME; details: cryopreserved human hepatocytes in suspension (pooled), 60 min
Description: The compounds of the invention (3 μM) were incubated in suspension with cryopreserved human (rat or mouse) hepatocytes pooled from multiple donors (>10) and samples taken at 6 time points over the course of a 60 min experiment and analysed by LC MS/MS. Williams E media supplemented with 2 mM L-glutamine and 25 mM HEPES and test compound (final substrate concentration 3 μM; final DMSO concentration 0.25%) were pre-incubated at 37° C. prior to the addition of a suspension of cryopreserved hepatocytes (final cell density 0.5×10^6 viable cells/mL in Williams E media supplemented with 2 mM L glutamine and 25 mM HEPES) to initiate the reaction. The final incubation volume is 500 μL. The reactions are stopped by transferring aliquots of incubate into acetonitrile at the appropriate time points, in a 1:2 ratio. The termination plates are centrifuged at 3,000 rpm for 20 min at 4° C. to precipitate the protein. Following protein precipitation, the sample supernatants were combined in cassettes of up to 4 compounds, internal standard was added and analysed by LC MS/MS. From a plot of ln peak area ratio (compound peak area/internal standard peak area) against time, the gradient of the line was determined. Subsequently, half-life (t½) and intrinsic clearance (CLint) were calculated using the equations below: Elimination rate constant (k)=(−gradient) Half-life (t½) (min)=0.693/k Intrinsic clearance (i.e. CLint) (μL/min/million cells)=V×0.693/t1/2
where V=Incubation volume (μL)/Number of cells
Verapamil and umbelliferone were included in the assay as controls and if the values for these compounds are not within the specified limits the results were rejected and the experiment repeated.

[4] = PK parameters in mouse (IV and PO); type: in vivo; details: for PK parameters (mouse): F: 10 mg/kg IV and 10 mg/kg PO; for clearance / half-life: male, Swiss Albino, plasma, IV arm, 10 mg/kg; for clearance: read-out: PK parameters (mouse): Cl; for half-life: read-out: PK parameters (mouse): t1/2
Description: Swiss Albino male mice or Sprague Dawley rats (TCGLS, India) were kept under a 12/12 h light/dark cycle, 22±2° C. temp, 50±20% RH with free access to food and water ad libitum. Mice were selected randomly/based on body weight/age and fasted for 4 h before dosing and until 2 h after dosing. Three mice were used per route of administration. […]
Blood samples were taken (mice 50 μL, rat 100 μL) at regular timepoints from the saphenous vein (conscious restrained animals) and collected into heparinized capillary tubes and transferred into 0.5 mL microcentrifuge tubes. Samples were processed by centrifugation at 1640 g for 10 min at +4° C. within 30 min of collection and stored at −20° C. until bioanalysis. All samples were mixed with ice-cold acetonitrile containing an internal standard, centrifuged at 4000 rpm for 15 min at 15° C. Supernatant was then half diluted in water and analysed by LCMS/MS analysis to determine analyte peak area/IS peak area (the ratio). Concentration (plasma) of the compounds of the invention was determined by reference to a calibration curve. Pharmacokinetic parameters (Cmax, Tmax, AUC, t1/2, CL, Vd, BA) were calculated using WinNonLin, using non-compartmental analysis (Phoenix, Version 6.3). The pharmacokinetic parameters for compounds shown in Table 2 support that compounds of the invention have pharmacokinetic properties associated with treatment of malaria via the oral route and that compounds have substantially longer half-lives than the reference compound.

Row | Structure (SMILES) | EC50 [1] | microsomal CLint at 1 μM [2] | hepatocyte CLint at 3 μM [3] | PK parameters (mouse): F [4] | clearance [4] | half-life [4]
1 | N#Cc1cc(NC(=O)[C@H]2c3ccccc3C(=O)N(CC(F)(F)F)[C@@H]2c2ccc(OC3CC3)nc2)ccc1F (single isomer, unassigned) [(1a)] | 19 nM | < 10 µL/min/mg | < 3 µL/min/1e6 cells | F = 79% | 2.17 mL/min/kg | 17 h
2 | N#Cc1cc(NC(=O)[C@H]2c3ccccc3C(=O)N(CC(F)(F)F)[C@@H]2c2cnc(C(F)(F)F)nc2)ccc1F [(9a), (3S,4S)—N-(3-cyano-4-fluorophenyl)-1-oxo-2-(2,2,2-trifluoroethyl)-3-(2-(trifluoromethyl)pyrimidin-5-yl)-1,2,3,4-tetrahydroisoquinoline-4-carboxamide] | 103 nM | < 10 µL/min/mg | < 3 µL/min/1e6 cells | F = 92% | 3.17 mL/min/kg | 14 h
3 | N#Cc1cc(NC(=O)[C@H]2c3ccccc3C(=O)N(CC(F)(F)F)[C@@H]2c2cccnc2)ccc1F [(+) SJ-733, 4-Isoquinolinecarboxamide, N-(3-cyano-4-fluorophenyl)-1,2,3,4-tetrahydro-1-oxo-3-(3-pyridinyl)-2-(2,2,2-trifluoroethyl)-, (3S,4S)-, reference compound] | 145 nM | < 6 µL/min/mg | 11.4 µL/min/1e6 cells | F = 66% | 70 mL/min/kg | 1.1 h
